Reference: PMC5862576, “Mitochondrial fission as a driver of stemness in tumor cells: mDIVI1 inhibits mitochondrial function, cell migration and cancer stem cell (CSC) signalling” (Oncotarget, 2018)

Key:
MCF7 cells [1] = assay: PrestoBlue viability assay; assay type: cell-based, Human
Description: Cell viability was measured using the resazurin-based PrestoBlue reagent (A-13261, ThermoFisher Scientific). Briefly, 5 × 10^3 MCF7 cells were seeded into 96-well black plates. When cells were attached mDIVI1 or vehicle were added to the cells. After 2 or 5 days, PrestoBlue reagent was added to the cells and incubated for 2 hours. Plates were finally read using a FluoStar Omega plate reader (BMG Labtech) at an excitation wavelength of 544 and an emission wavelength of 590 nm. Background measurements were subtracted from all values.

MCF7 cells [2] = assay: Mitochondrial staining (MitoTracker Deep Red, microscopy); assay type: cell-based, Human; conditions: 10 µM, 2 days or 5 days
Description: One hundred thousand MCF7 cells were seeded onto coverslips in 12-well plates. When cells were attached, mDIVI1 and vehicle treatments were performed in triplicate. After 2 days and 5 days, mitochondria were labeled by incubating cells for 15 min at 37° C with 25 nM of MitoTracker DeepRed (M22426, Invitrogen) diluted in PBS ([…], Sigma). Then, cells were washed with PBS, fixed in 2% paraformaldehyde (28908, Thermo Scientific) in PBS for 30 minutes at room temperature and mounted with ProLong® Gold Antifade Mountant reagent with DAPI (P36935, Invitrogen, Inc.). Immunofluorescence pictures were taken in a Leica gated Stimulated Emission Depletion Microscopy (gSTED) with additional confocal and multi-photon illumination (room rg106).

E-cadherin = assay: Western blotting; assay type: cell-based, Human; conditions: MCF7 cells
Description: At the end of the treatment, cells in suspension were spun down and lysed and attached cells were directly lysed in RIPA lysis buffer (R0278, Sigma) containing proteinase inhibitors (05 892 970 001, Roche) and kept at 4° C for 20 minutes with rotation. Lysates were cleared by centrifugation for 10 minutes at 10,000 xg and supernatants were collected. […] Bound antibodies were detected using a horseradish peroxidase-conjugated secondary antibody (ab6789 and ab6721, Abcam) and signal was obtained using Supersignal West Pico chemiluminiscent substrate (34087, ThermoScientific). Pictures were taken in a ChemiDoc XRS with Image Lab Software (BioRad).

Notch signalling = assay: Luciferase reporter assay MCF7-GFP-Rbp/Jk(luc); assay type: cell-based, Human; conditions: 50 µM, 2 and 5 days
Description: The Cignal Lenti reporter assay (luc) was used to monitor the activity of several signalling pathways in MCF7-GFP cells as explained previously. Luciferase Assay System (E1501, Promega) was performed according to manufacturer’s instructions. 1 × 10^4 MCF7 were seeded in black-walled 96 well plates. When cells were attached, drug treatments were added for 18, 48 hours and 5 days. After treatment, Luciferase Assay was performed according to manufacturer’s instructions and light signal was acquired in the Xenogen VivoVision IVIS Lumina. Results were normalized by SRB staining of cells grown in 96-well plates in parallel.
SRB (S9012, Sigma) measures total biomass by staining cellular proteins. After treatment, cells were fixed in 10% tricloroacetic acid (T9159, Sigma) for 1 hour at 4° C, stained with SRB (S9012, Sigma) for 15 minutes, and washed 3 times with 1% acetic acid (27225, Sigma). The incorporated die was solubilized with 10 mM Tris Base, pH 8.8 (T1503, Sigma). Absorbance was spectrophotometrically measured at 562 nm in a FluoStar Omega plate reader (BMG Labtech). Background measurements were subtracted from all values.

MCF7 cells [3] = assay: CD24/CD44 expression (FACS); assay type: cell-based, Human
Description: Following mDIVI1 treatment, MCF7 cells grown either in suspension or as monolayers were analysed for their expression of CD24 and CD44. The surviving fraction after 2 days and 5 days of growth was analyzed by FACS. MCF7 cells were either trypsinised or spun down and trypsinised and incubated with CD24 (IOTest CD24-PE, Beckman Coulter) and CD44 (APC mouse anti-human CD44, 559942, BD Pharmingen) for 15 minutes on ice. Cells were then rinsed twice in PBS, spun down, and resuspended with DAPI dye (D1306, Molecular probes) at 3 μM in PBS for 10 minutes. Samples were then analyzed by FACS (Fortessa, BD Bioscence). Only the live cell population, identified using the DAPI staining, was analyzed for CD24/CD44 expression. Data were analyzed using FlowJo software.

A549 lung cancer = assay: Tumorsphere formation assay, A549; assay type: cell-based; conditions: five days
Description: A single cell suspension was prepared using enzymatic (1× Trypsin-EDTA, T3924, Sigma Aldrich), and manual disaggregation (25 gauge needle). Cells were plated at a density of 5000 cells/well in tumorsphere media (DMEM-F12/B27/EGF (20ng/ml)/Pen-Strep) in non-adherent conditions, in 6-well plates coated with (2-hydroxyethylmethacrylate) (poly-HEMA, P3932, Sigma) in the presence of mDIVI1 or vehicle. After 5 days of culture in a humidified incubator at 37° C, tumorspheres bigger than 50 μm were counted using an eye piece graticule.

## COc1cc(-n2c(=S)[nH]c3ccccc3c2=O)c(Cl)cc1Cl [mDIVI1, 3-(2,4-Dichloro-5-methoxyphenyl) 2,3-dihydro 2-thioxo-4(1H) quinazolinone]
MCF7 cells [1]; 10 µM, 48 hours
  effect on MCF7 cell viability: did not decrease viability
MCF7 cells [1]; 10 µM, five days
  reduction of MCF7 cell viability: 20%
MCF7 cells [1]; 50 µM, 48 hours
  reduction of MCF7 cell viability: 20%
MCF7 cells [1]; 50 µM, five days
  reduction of MCF7 cell viability: over 65%
MCF7 cells [1]; 100 µM, 48 hours
  reduction of MCF7 cell viability: 20%
MCF7 cells [1]; 100 µM, five days
  reduction of MCF7 cell viability: 85%
MCF7 cells [2]
  mitochondrial morphology: more interconnected mitochondria
E-cadherin
  E-cadherin expression (immunoblot): reduction in the expression
Notch signalling
  Notch/Rbp pathway luciferase activity: strikingly caused the inhibition
MCF7 cells [3]; 50 µM, in suspension
  CD24−/CD44+ subpopulation: significantly increased
MCF7 cells [3]; 10 or 50 µM, cells grown as monolayers, vs vehicle
  abundance of CD24−/CD44+ subpopulation: not reduced
MCF7 cells [3]; cells in suspension, dose-dependent
  amount of CD24−/CD44+ cells: unexpectedly increased
A549 lung cancer; 10 µM
  decrease of A549 tumorsphere forming capacity: > 15%
A549 lung cancer; 50 µM
  decrease of A549 tumorsphere forming capacity: > 80%
